Measured values from patent US9126989B2, “Compound and methods for treating long QT syndrome” (Gilead Sciences, Inc., priority 2013, dated 2015).
Entries after “also recorded” stand apart in the source; their conditions may differ.

Key:
[1] = biological target: T1, cardiac late sodium current (INa) (Homo sapiens, UniProt Q14524); conditions: see US 2013/0012492; cited from earlier work
P-glycoproteins = P-glycoproteins (Homo sapiens, UniProt P08183); assay: P-glycoprotein inhibition; assay type: in vitro ADME
Sequence of P-glycoproteins (P08183 whole entry): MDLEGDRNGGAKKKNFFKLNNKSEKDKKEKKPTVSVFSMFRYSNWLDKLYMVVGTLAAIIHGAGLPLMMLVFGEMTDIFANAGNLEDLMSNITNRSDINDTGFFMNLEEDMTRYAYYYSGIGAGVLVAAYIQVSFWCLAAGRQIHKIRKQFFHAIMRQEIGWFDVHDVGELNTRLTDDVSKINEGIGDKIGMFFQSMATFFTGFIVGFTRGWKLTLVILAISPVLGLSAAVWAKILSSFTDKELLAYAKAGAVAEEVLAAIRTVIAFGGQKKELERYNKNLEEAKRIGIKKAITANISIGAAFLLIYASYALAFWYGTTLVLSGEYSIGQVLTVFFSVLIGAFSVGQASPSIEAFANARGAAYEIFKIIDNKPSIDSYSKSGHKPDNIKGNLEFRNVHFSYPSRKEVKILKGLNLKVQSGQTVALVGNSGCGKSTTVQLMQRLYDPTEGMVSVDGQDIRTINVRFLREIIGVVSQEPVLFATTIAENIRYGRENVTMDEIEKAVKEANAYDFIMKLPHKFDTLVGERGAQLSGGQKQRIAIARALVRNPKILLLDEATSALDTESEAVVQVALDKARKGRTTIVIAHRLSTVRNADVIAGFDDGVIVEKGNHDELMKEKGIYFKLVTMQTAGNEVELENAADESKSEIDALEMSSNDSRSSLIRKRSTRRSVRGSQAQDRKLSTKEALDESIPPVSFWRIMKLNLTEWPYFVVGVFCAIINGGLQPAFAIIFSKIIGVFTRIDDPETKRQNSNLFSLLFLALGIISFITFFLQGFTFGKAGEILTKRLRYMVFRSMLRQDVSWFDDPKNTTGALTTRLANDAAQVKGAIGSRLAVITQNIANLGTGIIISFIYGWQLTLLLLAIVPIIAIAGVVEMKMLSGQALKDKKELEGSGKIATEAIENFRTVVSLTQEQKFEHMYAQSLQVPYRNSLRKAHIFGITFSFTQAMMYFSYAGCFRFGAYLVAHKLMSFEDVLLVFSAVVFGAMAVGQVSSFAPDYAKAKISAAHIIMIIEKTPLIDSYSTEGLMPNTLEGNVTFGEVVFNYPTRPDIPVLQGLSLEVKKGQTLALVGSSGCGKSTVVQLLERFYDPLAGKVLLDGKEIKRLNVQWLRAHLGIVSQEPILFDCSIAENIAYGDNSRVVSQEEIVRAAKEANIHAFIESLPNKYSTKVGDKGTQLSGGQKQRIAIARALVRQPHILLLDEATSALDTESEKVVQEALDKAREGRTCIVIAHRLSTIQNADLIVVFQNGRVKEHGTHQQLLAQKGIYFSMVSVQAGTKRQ

[2] = test system: rabbit isolated wedge preparation; assay: Rabbit isolated left ventricular wedge preparation, E-4031 model of LQT-2; conditions: 60 nM E-4031, 300 nM Compound 1, cycle lengths 500, 1000 and 2000 msec
Method: E-4031 is an inhibitor of IKr.
Rabbit isolated left ventricular wedge was prepared as previously described (Yan et al, 1996, 2009). Briefly, the chest was opened via a left thoracotomy, and the heart was excised, placed in a cardioplegic solution consisting of cold (4° C.) Tyrode's solution containing 20 mmol/L […], and transported to a dissection tray. Transmural wedges with dimensions of approximately 1×1×0.8 or 0.8×0.8×0.4 cm^3 were dissected from the left ventricle. The tissue was cannulated via a small (diameter, ≈100 μm) branch of the left anterior descending artery or another coronary artery and perfused with cardioplegic solution. The total period of time from excision of the heart to cannulation and perfusion of the artery was less than 4 minutes. Unperfused tissue was carefully removed with a razor blade. The preparation was then placed in a tissue bath and arterially perfused with Tyrode's solution of the following composition (mmol/L): NaCl 129, KCl 4, NaH2PO4 0.9, NaHCO3 20, Ca 1.8, MgSO4 0.5, glucose 5.5, and insulin 1 U/L, buffered with 95% O2/5% CO2 (36±1° C.). The perfusate was delivered to the artery by a roller pump (Cole Panner Instrument Co). Perfusion pressure was monitored with a pressure transducer (World Precision Instruments, Inc) and maintained between 40 and 50 mm Hg by adjustment of the perfusion flow rate. The preparations remained immersed in the arterial perfusate, which was allowed to rise to a level 2 to 3 mm above the tissue surface (36±1° C.).

rabbit isolated heart = assay: Rabbit isolated heart, E-4031 model of LQT-2 and drug-induced QT prolongation
Text: E-4031 is an inhibitor of IKr. […] Hearts were paced at a rate of 1 Hz.
The use of rabbits (New Zealand White adult females, 2-4 kg; Western Oregon Rabbit Company, Philomath, Oreg.) in this investigation conformed to the “Guide for the Care and Use of Laboratory Animals” (NIH publication No. 85-23, revised 1996) and was approved by the Institutional Animal Care and Use Committees of Gilead Sciences. Hearts were isolated and perfused by the method of Langendorff as previously described (Wu et al., 2009). Briefly, the atrioventricular nodal area was thermally ablated to produce heart block, and hearts were paced at a rate of 1 Hz. Monophasic action potentials (MAPs) from the left ventricular epicardium and pseudo 12-lead electrocardiograms (ECGs) were recorded. […] The duration of the MAP at the level at which repolarization is 90% complete (MAPD90) was measured.

patients with LQT3 = assay: Phase 1 clinical study in patients with LQT3 (QTc, ECHO, tolerability); assay type: in vivo, human; conditions: for Tolerability: Phase 1; for Change in QTc from baseline: all dose levels (10-60 mg single, multiple dose cohort)
Method: In an ongoing Phase 1, effect of oral Compound (I) on the QTc interval in subjects with LQT3 was evaluated. Subjects with LQT3 identified from the LQTS registry with proven mutations in the cardiac sodium channel and a QTc >460 msec will be enrolled. Four sequential single dose cohorts and 1 multiple dose cohort were enrolled and received a single dose of Compound (I) (Cohort 1: 10 mg; Cohort 2: 20 mg; Cohort 3: 30 mg; Cohort-4: 60 mg) or multiple doses of Compound (I) (Cohort 5: Day 1—20 mg, Day 2—40 mg, Days 3-7—6 mg once daily).
Ten subjects were enrolled. Among these 10 subjects, 3 subjects received single oral dose of Compound (I), 5 subjects received Compound (I) at 2 different dose periods, and 2 subjects received Compound (I) at 3 different dose periods. […] Changes in QTc interval from baseline (Day −1 for Cohorts 1-4; average of Day −2 and Day −1 for Cohort 5) were analyzed in 2 different ways: 1) changes in average daytime QTc during 12 hours postdose (QTc interval AUC0-12/12) and 2) maximal time-matched QTc changes within 12 hours postdose. […] In the multiple dose cohort (shown in FIG. 5-6), the effect of Compound (I) on QTc shortening was dose-dependent with a larger QTc shortening after 40 mg on Day 2 compared to 20 mg on Day 1. More importantly, the QTc shortening was sustained during the maintenance doses of 6 mg from Days 3-7.
In addition, effect of Compound (I) on cardiac function was assessed by ECHO. For the single dose cohorts, echocardiography (ECHO) was performed at baseline (Day −1) and at 3 and 6 hours after the single oral dose of Compound (I) on Day 1. For the multiple dose cohort (Cohort 5), ECHO was performed at baseline (Day −1), at 3 and 6 hours after the single oral dose of Compound (I) on Day 1, and at 3 hours after dose on Day 4 and Day 7.

[3] = PK after single oral dose in patients with LQT-3; assay type: in vivo, human
Text: This is similar to the PK profile of Compound 1 in healthy volunteers.

[4] = biological target: T1, cardiac late sodium current (INa); assay: Inhibition of the cardiac late sodium current; assay type: biochemical
[5] = test system: model of long QT syndrome-3 (LQT3); assay: Model of LQT-3: action potential duration and beat-to-beat variability
[6] = test system: cytochrome P450 (CYP) enzymes; assay: Cytochrome P450 inhibition; assay type: in vitro ADME
[7] = LQT3 patients, listed as Compound (I)
[8] = after single dose administration

T1 sequence (Q14524 whole entry): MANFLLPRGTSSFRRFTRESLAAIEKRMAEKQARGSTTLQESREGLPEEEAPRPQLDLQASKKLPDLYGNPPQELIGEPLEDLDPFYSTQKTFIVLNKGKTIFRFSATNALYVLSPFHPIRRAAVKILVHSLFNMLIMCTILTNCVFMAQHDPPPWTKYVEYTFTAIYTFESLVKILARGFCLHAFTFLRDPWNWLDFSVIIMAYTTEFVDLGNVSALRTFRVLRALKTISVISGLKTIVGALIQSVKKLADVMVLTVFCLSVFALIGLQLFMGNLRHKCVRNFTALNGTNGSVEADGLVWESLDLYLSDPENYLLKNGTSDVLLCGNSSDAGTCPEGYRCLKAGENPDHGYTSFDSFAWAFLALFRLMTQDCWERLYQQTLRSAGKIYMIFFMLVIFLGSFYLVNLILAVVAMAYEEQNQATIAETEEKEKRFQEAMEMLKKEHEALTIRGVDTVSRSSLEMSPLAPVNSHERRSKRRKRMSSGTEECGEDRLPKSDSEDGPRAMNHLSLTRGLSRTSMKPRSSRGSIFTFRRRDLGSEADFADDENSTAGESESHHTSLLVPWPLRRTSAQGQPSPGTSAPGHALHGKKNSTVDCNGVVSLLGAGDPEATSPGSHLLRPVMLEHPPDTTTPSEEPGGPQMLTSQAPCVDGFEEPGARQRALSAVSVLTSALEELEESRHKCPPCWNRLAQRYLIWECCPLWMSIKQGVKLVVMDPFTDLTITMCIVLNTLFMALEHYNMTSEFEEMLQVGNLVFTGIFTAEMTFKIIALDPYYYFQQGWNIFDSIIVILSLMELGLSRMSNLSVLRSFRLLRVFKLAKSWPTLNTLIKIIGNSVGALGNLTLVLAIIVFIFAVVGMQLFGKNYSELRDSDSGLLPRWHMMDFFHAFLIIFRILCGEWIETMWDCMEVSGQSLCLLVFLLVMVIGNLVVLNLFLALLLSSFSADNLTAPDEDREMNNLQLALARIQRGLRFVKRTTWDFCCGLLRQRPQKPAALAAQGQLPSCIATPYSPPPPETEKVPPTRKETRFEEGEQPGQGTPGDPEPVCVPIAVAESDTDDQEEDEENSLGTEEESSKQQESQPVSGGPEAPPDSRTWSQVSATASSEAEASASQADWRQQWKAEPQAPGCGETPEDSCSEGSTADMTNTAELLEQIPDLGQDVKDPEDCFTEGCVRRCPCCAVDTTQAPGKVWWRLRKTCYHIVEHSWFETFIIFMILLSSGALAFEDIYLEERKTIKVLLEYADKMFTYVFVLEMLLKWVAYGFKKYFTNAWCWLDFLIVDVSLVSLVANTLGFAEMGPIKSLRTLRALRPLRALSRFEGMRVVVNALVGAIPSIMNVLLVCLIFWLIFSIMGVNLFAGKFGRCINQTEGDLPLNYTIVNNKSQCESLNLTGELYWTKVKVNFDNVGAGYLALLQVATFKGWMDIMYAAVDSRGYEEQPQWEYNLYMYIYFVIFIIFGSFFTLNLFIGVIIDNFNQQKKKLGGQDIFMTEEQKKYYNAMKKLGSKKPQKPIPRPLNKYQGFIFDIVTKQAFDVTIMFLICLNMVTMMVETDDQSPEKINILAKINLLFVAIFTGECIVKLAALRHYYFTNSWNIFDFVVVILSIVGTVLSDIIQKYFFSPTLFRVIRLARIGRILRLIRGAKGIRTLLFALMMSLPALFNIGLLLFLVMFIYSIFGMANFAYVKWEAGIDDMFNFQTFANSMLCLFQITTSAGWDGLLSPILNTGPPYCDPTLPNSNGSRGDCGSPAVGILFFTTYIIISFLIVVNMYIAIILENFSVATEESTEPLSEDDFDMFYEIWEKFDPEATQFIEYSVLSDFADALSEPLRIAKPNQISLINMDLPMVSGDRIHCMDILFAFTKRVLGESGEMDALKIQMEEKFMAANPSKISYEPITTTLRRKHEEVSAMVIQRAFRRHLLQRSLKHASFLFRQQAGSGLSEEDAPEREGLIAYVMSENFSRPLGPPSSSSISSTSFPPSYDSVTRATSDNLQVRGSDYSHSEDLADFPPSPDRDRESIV

O=C1c2cc(-c3ccc(OC(F)(F)F)cc3)ccc2OCCN1Cc1ncccn1 [Compound 1, 4-(pyrimidin-2-ylmethyl)-7-(4-(trifluoromethoxy)phenyl)-3,4-dihydrobenzo[f][1,4]oxazepin-5(2H)-one]
Late sodium channel inhibition [1]: potent late sodium channel inhibitors
Inhibition of P-glycoproteins (P-glycoproteins): does not inhibit
Prolonged action potential duration (APD) [2]: shortens
QT interval [2]: shortens
Tpeak to Tend (TpTe) [2]: shortens
Prolonged monophasic action potential (MAP) (rabbit isolated heart; 60 nM E-4031, 100 and 300 nM Compound 1, paced at 1 Hz): shortens
Torsades de pointes (TdP) ventricular tachyarrhythmia (rabbit isolated heart; induced by 60 nM E-4031, paced at 1 Hz): suppresses
Efficacy (QTc shortening or T-wave morphology) (patients with LQT3; 10 mg, three patients with inherited LQT3): preliminary efficacy
Dependence of QTc shortening on mutations or concomitant use of b-blockers (patients with LQT3; LQT3 patients): independent
Tolerability (patients with LQT3; LQT3 patients): well tolerated
Tolerability (patients with LQT3; [7]): well tolerated; also recorded: well-tolerated
Change in QTc from baseline (patients with LQT3; LQT3 patients): changes in QTc from baseline
Change in QTc from baseline (patients with LQT3; [7]): Shortening of QTc was observed at all dose levels; also recorded: shortens QTc interval
Left ventricular (LV) functions / cardiac function assessed by ECHO (patients with LQT3; LQT3 patients, single and multiple dose cohorts, listed as Compound (I)): did not affect; also recorded: no effect
Treatment of long QT syndrome in humans, specifically LQT3 (patients with LQT3; human, in vivo): effective
Persistence of QTc shortening (patients with LQT3; maintenance doses of 6 mg from Days 3-7): sustained
Dose dependence of QTc shortening (patients with LQT3; multiple dose cohort, 40 mg on Day 2 compared to 20 mg on Day 1): dose-dependent
QTc shortening (patients with LQT3; ten LQT-3 patients, single dose 10 mg, 20 mg, 30 mg or 60 mg): 20-100 milliseconds
Absorption [3, 8]: fast absorption
Clearance [3, 8]: low clearance
Decline of concentration [3, 8]: biphasic decline
Half-life [3, 8]: long half-life
PK profile in LQT3 patients compared with healthy volunteers ([3]; single oral dose, FIG. 4): similar
Inhibition of the cardiac late sodium current (INa) [4]: potent and selective inhibitors
Beat-to-beat variability ([5]; model of LQT3, FIG. 2): reduction
Action potential duration (APD) ([5]; model of LQT-3, FIG. 1): shortening
Inhibition of cytochrome P450 (CYP) enzymes [6]: does not inhibit

O=C1c2cc(-c3ccc(C(F)(F)F)cc3)ccc2OCCN1Cc1ncccn1 [Compound 2, 4-(pyrimidin-2-ylmethyl)-7-(4-(trifluoromethyl)phenyl)-3,4-dihydrobenzo[f][1,4]oxazepin-5(2H)-one]
Late sodium channel inhibition [1]: potent late sodium channel inhibitors
Inhibition of the cardiac late sodium current (INa) [4]: potent and selective inhibitors
